Consider three molecules from article PMC2694132 (Cancer research, 2009).

The conditions of series [1]: cited from earlier work; for apparent terminal half-life: patients treated with SAHA; for serum level relative to the parent compound (higher, on average): serum from patients treated with SAHA.
The target in series [2] is T1, UGT1A8*3 (UGT1A8p.Cys277Tyr) (Homo sapiens, UniProt Q9HAW9, C277Y).
T1 sequence (Q9HAW9 26-530 C277Y): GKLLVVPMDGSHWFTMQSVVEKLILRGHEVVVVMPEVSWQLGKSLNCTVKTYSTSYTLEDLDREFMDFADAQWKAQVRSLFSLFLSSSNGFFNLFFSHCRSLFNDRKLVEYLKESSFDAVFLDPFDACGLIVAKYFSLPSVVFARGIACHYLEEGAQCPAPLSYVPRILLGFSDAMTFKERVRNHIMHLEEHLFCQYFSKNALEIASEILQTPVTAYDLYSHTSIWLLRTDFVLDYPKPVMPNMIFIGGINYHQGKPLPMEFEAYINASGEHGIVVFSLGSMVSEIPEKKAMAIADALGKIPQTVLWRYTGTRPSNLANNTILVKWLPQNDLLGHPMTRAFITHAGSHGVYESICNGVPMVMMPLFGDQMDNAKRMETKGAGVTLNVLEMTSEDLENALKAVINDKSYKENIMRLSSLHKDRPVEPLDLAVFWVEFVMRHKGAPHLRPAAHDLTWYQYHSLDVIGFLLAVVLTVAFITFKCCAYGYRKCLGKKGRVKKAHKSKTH
The series can be described thus: Glucuronidation, UGT1A8*3 variant cell homogenate. It counts as in vitro ADME. The following applies: data not shown.

Regarding `O=C(CCCCCCC(=O)Nc1ccccc1)NO[C@@H]1O[C@H](C(=O)O)[C@@H](O)[C@H](O)[C@H]1O` [SAHA-glucuronide], in series [1], the apparent terminal half-life is reported as ~ 1.8 hours and the “serum level relative to the parent compound (higher, on average)” value was 3- to 4 fold.
Consider `O=C(O)CCC(=O)Nc1ccccc1` [4-anilino-4-oxobutanoic acid], for which, in series [1], the apparent terminal half-life was 6 to 9 h and the “serum level relative to the parent compound (higher, on average)” value was 10- to 13 fold.
For the molecule `Cc1cc(=O)oc2cc(O)ccc12` [4-methylumbellifer-one], in series [2], the “glucuronidation activity against 4-methylumbelliferone” value is reported as “detectable levels of activity”.
